One data set relates to Vibrio aesturianus. Description: Antibacterial bioassay, inhibition of bacterial growth (MIC). The class given is cell-based, Vibrio aestuarianus (ATCC 35048). Particulars: for MIC: Vibrio. The method, then:
(§1) Preparation of the compounds: antifouling efficiency of the compounds was assessed towards the inhibition of growth of key bacteria involved in marine and terrestrial surface colonisation. All bioassays were run in six replicates and using two batches of organisms. Compounds were tested at 0.01, 0.1, and 1 µg/mL. 96 well-plates were used and were coated with the compounds. Methanol was used as a carrier solvent and after its evaporation plates were sterilized under UV exposure for 30 min [41].
(§2) Seven strains of marine bacteria i.e., Halomonas aquamarina (ATCC 14400), Polaribacter irgensii (ATCC 700398), Shewanella putrefaciens (ATCC 8071), Roseobacter littoralis (ATCC 495666), Pseudoalteromonas elyakovii (ATCC 700519), Vibrio aestuarianus (ATCC 35048), Vibrio natriegens (ATCC 14058), and three strains of terrestrial bacteria, i.e., Escherichia coli (ATCC 11775), Staphylococcus aureus (ATCC 126000), and Pseudomonas aeruginosa (ATCC 16145) were used to assess the antibacterial potency of the compounds.
(§3) Inhibition of bacterial growth: experiments were run as previously described by Maréchal et al.. 96-well plates containing the compounds were inoculated with the bacteria (2 × 10^8 cells/mL) in LB medium ([…], Sigma, Andover, UK), (supplemented with NaCl (35 g/L) for marine strains), at 30 °C for 48 h. After incubation, the intensity of growth in the presence of the tested compounds and control (media only) was assessed by measurement of the OD 620 nm using a spectrophotometer (Apollo LB912, Berthold Technologies). Results are expressed as minimum inhibitory concentrations (MIC values).

Another data set concerns Roseobacter littoralis. Described as above. Particulars: 48 h; for MIC: read-out: MIC Roseobacter littoralis. In kind it is cell-based, Roseobacter littoralis (ATCC 495666). The method, then:
as §1, §2, §3

The target of data set [1] is T1, Acetylcholinesterase from Electrophorus electricus (Electrophorus electricus, UniProt O42275).
T1 construct: purchased Sigma-Aldrich
Description: biochemical. The class given is biochemical. The method, then: This bioassay was set up after Ellman. This method is the most commonly used to screen compounds against this target. All reagents, buffers, and salts were purchased from Sigma-Aldrich (Saint-Louis, MO, USA). Two buffer solutions were prepared extemporaneously: buffer A (50 mM Tris-HCl pH 8 + 0.1% BSA); and buffer B (50 mM Tris-HCl pH 8 + 0.1 M NaCl + 0.02 M MgCl2.6H2O). Acetylcholinesterase from Electrophorus electricus (EC 3.1.1.7, AChE−0.2 U/mL) was dissolved in buffer A, 5,5′-dithiobis-2-nitrobenzoic acid (DTNB-Ellman’s reagent−3 mM) in buffer B, and acetylthiocholine iodide (ACTI−6 mM) in H2O. Tested compounds were dissolved in DMSO at 10 mg/mL, stored at −20 °C, and subsequently 100 times diluted in H2O before the assay. 10 μL AChE was preincubated for 10 min with 70 μL DTNB and 10 μL compounds solution in 96-well microplates. The enzymatic reaction was initiated with the addition of 10 μL ACTI, a synthetic substrate of AChE. After 30 min at 25 °C, absorbance of the plate was measured at 405 nm using a microplate reader (Tecan Infinite M200). Percentage of inhibition was calculated using the following equation: 100 × (Acontrol − Asample)/(Acontrol − A0), where Acontrol is the average absorbance of the wells in which tested compounds were replaced by water, Asample is the absorbance of the well with tested compound, and A0 the average absorbance of blank wells where AChE was omitted. Products leading to 50% inhibition of AChE were then submitted to dose-response experiments. Serial dilutions of the products were prepared (100, 50, 25, 12.5, 6.25, 3.125, 1.5625, and 0.78125 µg/mL). Enzymatic assay was performed according to the same procedure with 10 µL of each concentration added. IC50 values (concentration leading to 50% inhibition of enzymatic activity) were graphically determined by plotting the percentage of inhibition against the compound concentrations.
Each assay was performed in triplicate and results are expressed as mean values ± SD.

The subject of the next data set is Halomonas aquamarina. Description: Antibacterial bioassay, inhibition of bacterial growth (MIC). The following applies: for MIC Halomonas aquamarina / MIC: 48 h; for MIC toward Halomonas aquamarina: the lowest concentration tested; for MIC: Vreelandella aquamarina, read-out: MIC Halomonas aquamarina. In kind it is cell-based, Halomonas aquamarina (ATCC 14400). As for the experimental part: as §1, §2, §3

Another data set deals with T2, DNMT1 (Homo sapiens, UniProt P26358).
T2 construct: purchased Active Motif
Description: In vitro DNMT1 activity inhibition assay. The class given is biochemical. Particulars: compounds at 50 µM, 25 ng purified DNMT1, 2 h, 37 °C, three independent experiments. As for the experimental part:
DNMT1 activity was measured using in vitro DNMT activity/inhibition assay (Active Motif, Rixensart, Belgium) according to manufacturer’s instructions. All compounds were used at a final 50 µM concentration. The methylation reaction was performed by incubating 25 ng of purified DNMT1 with compounds for 2 h at 37 °C in the presence of 0.01% Triton X-100. The methylated DNA was then recognized by the His-tagged methyl-CpG binding domain protein 2b. The addition of a poly-histidine antibody conjugated to horseradish peroxidase provided a colorimetric readout quantified with a spectrophotometer (SpectraCount, Packard) at the wavelength of 450 nm. Data of DNMT1 activity are reported as percentage of control.

The next data set deals with Escherichia coli. Put plainly: Antibacterial bioassay, inhibition of bacterial growth (MIC). Particulars: for MIC: Escherichia coli. In kind it is cell-based, Escherichia coli (ATCC 11775). As for the experimental part:
as §1, §2, §3

Data set [2] in a line: Degradation of 11-epi-fistularin-3 in acetonitrile/water (+0.1% HCOOH). The class given is physicochemical. Particulars: acetonitrile/water (+0.1% HCOOH) 1/1, room temperature, two weeks; HPLC analysis.
Description: We then decided to manage the degradation process of epi-fistularin-3 (1) in a less drastic conditions by dissolving it in a mixture of acetonitrile/water (+0.1% HCOOH) 1/1 and stirring at room temperature for two weeks. The reaction mixture was then dried under vacuum and chromatographed.
The reaction mixture was then dried under vacuum and submitted for HPLC analysis.
[3] abbreviates: tested at 0.01, 0.1 and 1 µg/mL, 30 °C, 48 h, OD 620 nm.
The mark [4] stands for this setting: tested at 0.01, 0.1 and 1 µg/mL, 30 °C, OD 620 nm.
Where [5] appears, read: mean ± SD, triplicate, 30 min at 25 °C, absorbance 405 nm, read-out: Acetylcholinesterase IC50.
The mark [6] stands for this setting: tested at 0.01, 0.1 and 1 µg/mL, 30 °C, 48 h, OD 620 nm, read-out: MIC Vibrio aesturianus.
The mark [7] stands for this setting: tested at 0.01, 0.1 and 1 µg/mL, 30 °C, 48 h, OD 620 nm, read-out: MIC Escherichia coli.

Here are results for 10 compounds from publication PMC7999702, “Bioactive Bromotyrosine Derivatives from the Pacific Marine Sponge Suberea clavata (Pulitzer-Finali, 1982)” (Marine Drugs, 2021).

Converted amounts (≈) assume the structure as drawn. Like-named read-outs stand apart in the source and are kept apart here.

T1 sequence (O42275 24-633): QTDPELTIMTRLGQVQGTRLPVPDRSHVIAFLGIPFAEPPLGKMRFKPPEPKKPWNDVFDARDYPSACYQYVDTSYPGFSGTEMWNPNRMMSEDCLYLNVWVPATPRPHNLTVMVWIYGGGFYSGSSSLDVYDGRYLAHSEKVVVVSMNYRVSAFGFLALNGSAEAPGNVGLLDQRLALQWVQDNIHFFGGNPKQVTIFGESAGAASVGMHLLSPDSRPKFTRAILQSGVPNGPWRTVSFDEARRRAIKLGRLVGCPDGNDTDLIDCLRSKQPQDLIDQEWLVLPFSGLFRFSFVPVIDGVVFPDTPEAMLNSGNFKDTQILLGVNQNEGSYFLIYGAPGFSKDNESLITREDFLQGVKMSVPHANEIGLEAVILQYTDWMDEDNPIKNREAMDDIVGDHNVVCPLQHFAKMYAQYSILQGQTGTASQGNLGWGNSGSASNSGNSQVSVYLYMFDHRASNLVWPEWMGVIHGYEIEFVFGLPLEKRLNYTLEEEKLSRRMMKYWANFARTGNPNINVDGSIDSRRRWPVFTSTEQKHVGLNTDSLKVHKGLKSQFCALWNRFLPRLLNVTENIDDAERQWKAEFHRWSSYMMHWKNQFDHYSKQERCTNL
T2 sequence (P26358 whole entry): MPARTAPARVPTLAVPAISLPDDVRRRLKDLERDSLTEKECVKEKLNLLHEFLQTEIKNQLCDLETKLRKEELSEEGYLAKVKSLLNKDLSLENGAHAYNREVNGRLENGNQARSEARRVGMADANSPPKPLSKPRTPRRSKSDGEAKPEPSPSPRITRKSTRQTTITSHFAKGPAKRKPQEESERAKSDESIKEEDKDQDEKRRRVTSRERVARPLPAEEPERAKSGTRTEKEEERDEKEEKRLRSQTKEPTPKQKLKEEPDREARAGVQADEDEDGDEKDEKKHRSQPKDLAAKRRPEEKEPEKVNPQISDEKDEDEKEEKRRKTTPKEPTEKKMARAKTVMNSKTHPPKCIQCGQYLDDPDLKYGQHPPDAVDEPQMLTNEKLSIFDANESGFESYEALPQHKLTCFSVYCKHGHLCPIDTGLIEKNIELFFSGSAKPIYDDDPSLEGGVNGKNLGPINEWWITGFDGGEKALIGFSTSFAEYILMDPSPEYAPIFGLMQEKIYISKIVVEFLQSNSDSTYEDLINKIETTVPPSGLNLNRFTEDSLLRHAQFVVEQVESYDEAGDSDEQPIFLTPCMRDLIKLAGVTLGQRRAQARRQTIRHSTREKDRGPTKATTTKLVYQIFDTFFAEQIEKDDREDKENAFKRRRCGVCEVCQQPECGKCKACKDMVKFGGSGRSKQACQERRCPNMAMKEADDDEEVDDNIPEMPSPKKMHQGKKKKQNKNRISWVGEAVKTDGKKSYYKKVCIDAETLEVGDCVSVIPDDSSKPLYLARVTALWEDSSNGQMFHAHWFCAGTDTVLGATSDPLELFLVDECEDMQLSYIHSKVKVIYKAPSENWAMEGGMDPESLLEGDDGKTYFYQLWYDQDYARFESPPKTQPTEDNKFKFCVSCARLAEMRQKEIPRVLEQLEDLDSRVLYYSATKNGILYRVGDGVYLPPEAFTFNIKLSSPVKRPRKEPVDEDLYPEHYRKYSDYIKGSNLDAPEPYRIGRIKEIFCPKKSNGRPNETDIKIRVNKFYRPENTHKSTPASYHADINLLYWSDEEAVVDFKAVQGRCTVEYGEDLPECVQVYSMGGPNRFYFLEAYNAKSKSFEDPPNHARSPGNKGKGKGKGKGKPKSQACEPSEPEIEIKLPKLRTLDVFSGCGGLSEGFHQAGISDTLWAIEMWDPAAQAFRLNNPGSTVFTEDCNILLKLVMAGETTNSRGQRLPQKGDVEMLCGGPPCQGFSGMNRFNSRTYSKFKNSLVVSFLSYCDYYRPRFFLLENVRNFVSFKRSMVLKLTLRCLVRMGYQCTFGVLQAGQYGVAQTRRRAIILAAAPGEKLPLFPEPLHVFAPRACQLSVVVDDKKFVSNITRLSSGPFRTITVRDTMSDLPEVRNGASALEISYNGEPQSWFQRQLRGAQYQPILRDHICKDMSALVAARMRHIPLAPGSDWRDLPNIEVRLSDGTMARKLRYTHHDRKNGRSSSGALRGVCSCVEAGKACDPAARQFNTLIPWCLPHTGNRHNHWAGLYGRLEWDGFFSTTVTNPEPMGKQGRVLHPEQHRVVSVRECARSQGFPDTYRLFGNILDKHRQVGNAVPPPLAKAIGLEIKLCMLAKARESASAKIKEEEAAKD

The IC50 is the concentration that inhibits the measured activity by half. Turning to `COC1=C(Br)C(O)C2(C=C1Br)CC(C(=O)NCCCOc1c(Br)cc(CCNC(=O)C3=NOC4(C=C(Br)C(OC)=C(Br)C4O)C3)cc1Br)=NO2` (stereo not drawn) [11,17-dideoxyfistularin (14), 11,17-dideoxyfistularin-3], the “MIC Vibrio aesturianus” value with Vibrio aesturianus (setting [3]) is more than 1 µg/mL. In addition, the “MIC Roseobacter littoralis” value in the data set with Roseobacter littoralis (setting [4]) is listed as more than 1 µg/mL. For the same compound, the IC50 in data set [1] (setting [5]) came out at 10 ± 0.3 µM. Further, the “MIC Halomonas aquamarina” value against Halomonas aquamarina (setting [4]) was 0,01 µg/mL. Besides, in the data set on Halomonas aquamarina, the “MIC toward Halomonas aquamarina” value is recorded as 0.01 µg/mL (≈ 0.00924 µM). The “DNMT1 activity, percentage of control” value on DNMT1 was “statistically significant decrease”. Moreover, in the data set on Escherichia coli (setting [3]), the “MIC Escherichia coli” value is more than 1 µg/mL.
Take `COC1=C(Br)[C@H](O)[C@@]2(C=C1Br)CC(C(=O)NCCCOc1c(Br)cc(C(O)CNC(=O)C3=NO[C@]4(C=C(Br)C(OC)=C(Br)[C@@H]4O)C3)cc1Br)=NO2` (stereo partly drawn) [11-deoxyfistularin-3 (13), 11-deoxyfistularin-3]: the “MIC Vibrio aesturianus” value in the data set on Vibrio aesturianus (setting [3]) was more than 1 µg/mL. In addition, the “MIC Roseobacter littoralis” value against Roseobacter littoralis (setting [4]) is reported as more than 1 µg/mL. For the same compound, the IC50 in data set [1] (setting [5]) is more than 10 µM. In addition, the “MIC Halomonas aquamarina” value with Halomonas aquamarina (setting [4]) is reported as 0,01 µg/mL. For the same compound, in the data set on Halomonas aquamarina, the “MIC toward Halomonas aquamarina” value is 0.01 µg/mL (≈ 0.00911 µM). Also, the “MIC Escherichia coli” value against Escherichia coli (setting [3]) is more than 1 µg/mL.
As to `COC1=C(Br)[C@H](O)[C@@]2(C=C1Br)CC(C(=O)NCCC(O)CNC(=O)C1=NO[C@]3(C=C(Br)C(OC)=C(Br)[C@@H]3O)C1)=NO2` (stereo partly drawn) [11-hydroxyaerothionin (15), 11-hydroxy-aerothionin], in the data set with Vibrio aesturianus (setting [3]), the “MIC Vibrio aesturianus” value was more than 1 µg/mL. In the data set with Roseobacter littoralis (setting [4]), the “MIC Roseobacter littoralis” value is more than 1 µg/mL. In addition, the IC50 in data set [1] (setting [5]) was determined as 10 ± 0.3 µM. Moreover, in the data set on Halomonas aquamarina (setting [4]), the “MIC Halomonas aquamarina” value is listed as 0,01 µg/mL. The “MIC Escherichia coli” value against Escherichia coli (setting [3]) was more than 1 µg/mL.
Usually MIC stands for the least concentration at which growth counts as inhibited. For `COC1=C(Br)[C@H](O)[C@@]2(C=C1Br)CC(C(=O)NCCc1cc(Br)c(OC[C@H](O)CNC(=O)C3=NO[C@]4(C=C(Br)C(OC)=C(Br)[C@@H]4O)C3)c(Br)c1)=NO2` [17-deoxy-11-epi-fistularin-3 (10), 17-deoxy-11(R)-epi-fistularin-3], the MIC with Vibrio aesturianus (setting [6]) was more than 1 µM; in the data set with Roseobacter littoralis (setting [4]) it was more than 1 µM; in the data set with Halomonas aquamarina (setting [4]), 0.01 µM (≈ 0.011 µg/mL); with Escherichia coli (setting [7]), more than 1 µM. Besides, in data set [1] (setting [5]), the IC50 is more than 10 µM.
As for `COC1=C(Br)[C@H](O)[C@@]2(C=C1Br)CC(C(=O)NCC(=O)c1cc(Br)c(OC[C@H](O)CNC(=O)C3=NO[C@]4(C=C(Br)C(OC)=C(Br)[C@@H]4O)C3)c(Br)c1)=NO2` [17-oxo-11-epi-fistularin-3 (8), 17-oxo-11-epi-fistularin-3], the MIC was 0.01 µM in the data set on Vibrio aesturianus (48 h, read-out: MIC Vibrio aesturianus); more than 1 µM in the data set with Roseobacter littoralis; more than 1 µM in the data set on Halomonas aquamarina; more than 1 µM in the data set with Escherichia coli (48 h, read-out: MIC Escherichia coli). The same compound returned an IC50 in data set [1] of more than 10 µM.
Turning to `COC1=C(Br)[C@H](O)[C@@]2(C=C1Br)CC(C(=O)NC[C@@H](O)COc1c(Br)cc([C@H](O)CNC(=O)C3=NO[C@]4(C=C(Br)C(OC)=C(Br)[C@@H]4O)C3)cc1Br)=NO2` [epi-fistularin-3 (1), 11-epi-fistularin-3], the MIC with Vibrio aesturianus (setting [6]), in the data set with Roseobacter littoralis (setting [4]), in the data set on Halomonas aquamarina (setting [4]) and in the data set on Escherichia coli (setting [7]) was more than 1 µM each time. In data set [1] (setting [5]), the IC50 is more than 10 µM. For the same compound, the “stability in acidic aqueous acetonitrile (degradation products)” value in data set [2] was “gave agelorin A, agelorin B, and the compounds 2–7”. For the same compound, the remaining activity at 50 µM on DNMT1 (read-out: DNMT1 activity, percentage of control) is approximately 70%.
`COC1=C(Br)[C@H](O)[C@@]2(C=C1Br)CC(C(=O)NC[C@@H](O)COc1c(Br)cc([C@H](O)CNC(=O)/C(Cc3cc(Br)c(OC)c(Br)c3O)=N/O)cc1Br)=NO2` [suberein-1 (2), suberein-1]: the minimal inhibitory concentration (MIC) was 0.01 µM with Vibrio aesturianus (setting [6]), 1 µM (≈ 1.11 µg/mL) in the data set with Roseobacter littoralis (setting [4]), more than 1 µM with Halomonas aquamarina (setting [4]) and more than 1 µM in the data set with Escherichia coli (setting [7]). For the same compound, the IC50 in data set [1] (setting [5]) is more than 10 µM.
In the case of `COC1=C(Br)[C@H](O)[C@@]2(C=C1Br)CC(C(=O)NC[C@@H](O)c1cc(Br)c(OC[C@H](O)CNC(=O)/C(Cc3cc(Br)c(OC)c(Br)c3O)=N/O)c(Br)c1)=NO2` [suberein-2 (3), suberein-2], the MIC was 0.01 µM with Vibrio aesturianus (setting [6]); 0.01 µg/mL in the data set on Vibrio aesturianus (the lowest concentration tested, read-out: MIC against V. aesturianus); more than 1 µM in the data set with Roseobacter littoralis (setting [4]); more than 1 µM in the data set on Halomonas aquamarina (setting [4]); 0.01 µM in the data set with Escherichia coli (setting [7]); 0.01 µg/mL in the data set with Escherichia coli (the lowest concentration tested, read-out: MIC against E. coli). Besides, the IC50 in data set [1] (setting [5]) is more than 10 µM.
agelorin A [agelorin A (11)]: in the data set with Vibrio aesturianus (setting [3]), the “MIC Vibrio aesturianus” value is 0.1 µg/mL. Also, the “MIC Roseobacter littoralis” value with Roseobacter littoralis (setting [4]) turned out to be 0.1 µg/mL. Besides, the “MIC Halomonas aquamarina” value with Halomonas aquamarina (setting [4]) is 0.1 µg/mL.
As for agelorin B [agelorin B (12)], in the data set on Vibrio aesturianus (setting [3]), the “MIC Vibrio aesturianus” value is more than 1 µg/mL. Also, the “MIC Roseobacter littoralis” value in the data set on Roseobacter littoralis (setting [4]) is reported as more than 1 µg/mL. Moreover, the “MIC Halomonas aquamarina” value against Halomonas aquamarina (setting [4]) is on record as more than 1 µg/mL. The “MIC Escherichia coli” value with Escherichia coli (setting [3]) was more than 1 µg/mL.
